In US5206227A, “Composition and use of phosphonic acid, (2-halo-2-cyanoethenyl)-dialkyl esters as antimicrobials” (priority 1992, dated 1993):

Assays:
Enterobacter aerogenes = experiment: Minimum inhibitory concentration (MIC), nutrient agar; type: cell-based, Enterobacter aerogenes (ATCC 13048); conditions: Ea, 30° C., 48 hours
Protocol: (§1) The minimum inhibitory concentration (MIC) for compounds of this invention, listed in Table I, is determined for 9 bacteria, using nutrient agar, and 7 yeast and fungi, using malt yeast agar. A one percent solution of a compound is prepared in a mixture of acetone and water. Nutrient agar is prepared at pH 6.8, representing a neutral medium, and at pH 8.2, representing an alkaline medium. The nutrient agars are prepared by adding 23 g of nutrient agar to one-liter of deionized water. In addition, the alkaline medium is prepared by adjusting a 0.04M solution of N-[tris-(hydroxymethyl)methyl]-glycine buffered deionized water with concentrated sodium hydroxide to a pH of […]. Malt yeast agar is prepared by adding 3 g yeast extract and 45 g malt agar per liter of deionized water. The specific agar is dispensed in 30 ml aliquots into 25×200 mm test tubes, capped and autoclaved for 15 minutes at 115° C. The test tubes containing the agar are cooled in a water bath until the temperature of the agar is 48° C. Then, an appropriate amount of the one percent solution of the compound is added (except in the controls where no compound is added) to the respective test tubes so that the final concentrations are 500, 250, 100, 50, 25, 10, 5, 2.5, 1.0 and zero parts per million of the compound in the agar, thus having a known concentration of compound dispersed therein. The contents of the test tubes are then transferred to respective petri plates. After drying for 24 hours, the petri plates containing nutrient agar are inoculated with bacteria and those containing malt yeast agar are inoculated with yeast and fungi.
(§2) The inoculation with bacteria is accomplished by using the following procedure. Twenty-four hour-cultures of each of the bacteria are prepared by incubating the respective bacteria in tubes containing nutrient broth for 24 hours at 30° C. in a shaker. Dilutions of each of the 24 hour-cultures are made so that nine separate suspensions (one for each of the nine test bacteria) are made, each containing 10^8 colony forming units (CFU) per milliliter of suspension of a particular bacteria. Aliquots of 0.3 ml of each of the bacterial suspensions are used to fill the individual wells of Steer's Replicator. For each microbial suspension 0.3 ml was used to fill three wells (i.e., three wells of 0.3 ml each) […] to inoculate both the neutral and alkaline pH nutrient agar petri plates.
(§3) The inoculated petri plates are incubated at 30° C. for 48 hours and then read to determine if the compound which is incorporated into the agar prevented growth of the respective bacteria. […]

Staphylococcus aureus = experiment: as above; type: cell-based, Staphylococcus aureus (ATCC 6538); conditions: Sa, 30° C., 48 hours
Protocol: as §1, §2, §3

[1] = system: Pseudomonas aeruginosa (PRD-10); experiment: as above; type: cell-based, Pseudomonas aeruginosa (ATCC 15442); conditions: 30° C., 48 hours
Protocol: as §1, §2, §3

Saccharomyces cerevisiae = experiment: Minimum inhibitory concentration (MIC), malt yeast agar; type: cell-based, Saccharomyces cerevisiae (ATCC 4105); conditions: Sc, 30° C., 48 hours (yeast)
Protocol: (§4) The minimum inhibitory concentration (MIC) for compounds of this invention, listed in Table I, is determined for 9 bacteria, using nutrient agar, and 7 yeast and fungi, using malt yeast agar. A one percent solution of a compound is prepared in a mixture of acetone and water. Nutrient agar is prepared at pH 6.8, representing a neutral medium, and at pH 8.2, representing an alkaline medium. The nutrient agars are prepared by adding 23 g of nutrient agar to one-liter of deionized water. In addition, the alkaline medium is prepared by adjusting a 0.04M solution of N-[tris-(hydroxymethyl)methyl]-glycine buffered deionized water with concentrated sodium hydroxide to a pH of […]. Malt yeast agar is prepared by adding 3 g yeast extract and 45 g malt agar per liter of deionized water. The specific agar is dispensed in 30 ml aliquots into 25×200 mm test tubes, capped and autoclaved for 15 minutes at 115° C. The test tubes containing the agar are cooled in a water bath until the temperature of the agar is 48° C. […]
(§5) The inoculation with the yeast and fungi is accomplished as follows. […] The petri plates are incubated at 30° C. and read after 48 hours for yeast and 72 hours for fungi. […]

Penicillium chrysogenum = experiment: as above; type: cell-based, Penicillium chrysogenum (ATCC 9480); conditions: Pc, 30° C., 72 hours (fungi)
Protocol: as §4, §5

Proteus vulgaris = experiment: Minimum inhibitory concentration (MIC), nutrient agar; type: cell-based, Proteus vulgaris (ATCC 881); conditions: Pv, 30° C., 48 hours
Protocol: as §1, §2, §3

[2] = system: Pseudomonas aeruginosa (Pa); experiment: as above; type: cell-based, Pseudomonas aeruginosa (ATCC 10145); conditions: 30° C., 48 hours
Protocol: as §1, §2, §3

Escherichia coli = experiment: as above; type: cell-based, Escherichia coli (ATCC 11229); conditions: Ec, 30° C., 48 hours
Protocol: as §1, §2, §3

Bacillus subtilis = experiment: as above; type: cell-based, Bacillus subtilis (ATCC 8473); conditions: Bs, 30° C., 48 hours
Protocol: as §1, §2, §3

Aspergillus niger = experiment: Minimum inhibitory concentration (MIC), malt yeast agar; type: cell-based, Aspergillus niger (ATCC 16404); conditions: An, 30° C., 72 hours (fungi)
Protocol: as §4, §5

Fusarium oxysporum = experiment: as above; type: cell-based, Fusarium oxysporum (ATCC 48112); conditions: Fo, 30° C., 72 hours (fungi)
Protocol: as §4, §5

Trichoderma viride = experiment: as above; type: cell-based, Trichoderma viride (ATCC 8678); conditions: Tv, 30° C., 72 hours (fungi)
Protocol: as §4, §5

Salmonella choleraesuis = experiment: Minimum inhibitory concentration (MIC), nutrient agar; type: cell-based, Salmonella choleraesuis (ATCC 10708); conditions: Sc, 30° C., 48 hours
Protocol: as §1, §2, §3

Klebsiella pneumoniae = experiment: as above; type: cell-based, Klebsiella pneumoniae (ATCC 8308); conditions: Kp, 30° C., 48 hours
Protocol: as §1, §2, §3

Candida albicans = experiment: Minimum inhibitory concentration (MIC), malt yeast agar; type: cell-based, Candida albicans (ATCC 10231); conditions: Ca, 30° C., 48 hours (yeast)
Protocol: as §4, §5

Measured: Minimum Inhibitory Concentration (MIC)

COP(=O)(C=C(Cl)C#N)OC [Compound A, Phosphonic acid, (2-chloro-2-cyanoethenyl)-dimethyl ester]
> 10 ppm: Staphylococcus aureus; pH 8.2, nutrient agar
50 ppm: Staphylococcus aureus; pH 6.8, nutrient agar | Penicillium chrysogenum | Fusarium oxysporum
500 ppm: Enterobacter aerogenes; pH 6.8, nutrient agar | [1]; pH 6.8, nutrient agar | [2]; pH 6.8, nutrient agar | Bacillus subtilis; pH 8.2, nutrient agar | Klebsiella pneumoniae; pH 8.2, nutrient agar
> 500 ppm: Enterobacter aerogenes; pH 8.2, nutrient agar | [1]; pH 8.2, nutrient agar | Proteus vulgaris; pH 8.2, nutrient agar | [2]; pH 8.2, nutrient agar | Escherichia coli; pH 8.2, nutrient agar | Salmonella choleraesuis; pH 8.2, nutrient agar
250 ppm: Proteus vulgaris; pH 6.8, nutrient agar | Escherichia coli; pH 6.8, nutrient agar | Aspergillus niger | Salmonella choleraesuis; pH 6.8, nutrient agar | Klebsiella pneumoniae; pH 6.8, nutrient agar
25 ppm: Bacillus subtilis; pH 6.8, nutrient agar
100 ppm: Saccharomyces cerevisiae | Trichoderma viride | Candida albicans

CCOP(=O)(C=C(Cl)C#N)OCC [Compound B, Phosphonic acid, (2-chloro-2-cyanoethenyl)-diethyl ester]
50 ppm: Escherichia coli; pH 6.8, nutrient agar | Fusarium oxysporum | Klebsiella pneumoniae; pH 6.8, nutrient agar
25 ppm: Staphylococcus aureus; pH 6.8, nutrient agar | Proteus vulgaris; pH 6.8, nutrient agar | Bacillus subtilis; pH 6.8, nutrient agar | Salmonella choleraesuis; pH 6.8, nutrient agar
> 500 ppm: Enterobacter aerogenes; pH 8.2, nutrient agar | Staphylococcus aureus; pH 8.2, nutrient agar | [1]; pH 8.2, nutrient agar | Proteus vulgaris; pH 8.2, nutrient agar | [2]; pH 8.2, nutrient agar | Escherichia coli; pH 8.2, nutrient agar | Bacillus subtilis; pH 8.2, nutrient agar | Salmonella choleraesuis; pH 8.2, nutrient agar | Klebsiella pneumoniae; pH 8.2, nutrient agar
250 ppm: [1]; pH 6.8, nutrient agar | Saccharomyces cerevisiae | [2]; pH 6.8, nutrient agar | Aspergillus niger
100 ppm: Enterobacter aerogenes; pH 6.8, nutrient agar | Penicillium chrysogenum | Trichoderma viride | Candida albicans
